Measured values as given in PubChem BioAssay (NCI).
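All cell lines were grown in 96-well plates and treated with compound for 48 hours. At the TGI there is no net growth.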

Columns and labels:
Experiment in all cases: growth of human tumour cells (NCI), 48 h
[1] = system: OVCAR-4 ovarian
[2] = system: HCT-116 colon
[3] = system: UO-31 renal
[4] = system: RPMI-8226 leukemia
[5] = system: T-47D breast
[6] = system: BT-549 breast
[7] = system: SK-MEL-2 melanoma
[8] = system: RXF 393 renal
[9] = system: HCT-15 colon
[10] = system: HT29 colon
[11] = system: TK-10 renal
[12] = system: LOX IMVI melanoma
[13] = system: K-562 leukemia
[14] = system: PC-3 prostate
[15] = system: DU-145 prostate
[16] = system: COLO 205 colon
[17] = system: M14 melanoma
[18] = system: KM12 colon
[19] = system: SF-268 CNS
[20] = system: A549 NSCLC
[21] = system: OVCAR-3 ovarian
[22] = system: NCI-H23 lung
[23] = system: MDA-N
[24] = system: SNB-19 CNS
[25] = system: SK-OV-3 ovarian
[26] = system: NCI-H460 lung
[27] = system: HS 578T breast
[28] = system: EKVX NSCLC
[29] = system: HOP-62 NSCLC
[30] = system: HCC-2998 colon
[31] = system: CCRF-CEM leukemia
[32] = system: HL-60(TB) leukemia
[33] = system: SF-295 CNS
[34] = system: SW-620 colon
[35] = system: MDA-MB-231 breast
[36] = system: UACC-62 melanoma
[37] = system: ACHN renal
[38] = system: OVCAR-5 ovarian
[39] = system: MDA-MB-435
[40] = system: 786-0 renal
[41] = system: A498 renal
[42] = system: NCI-H226 lung
[43] = system: SF-539 CNS
[44] = system: HOP-92 NSCLC
[45] = system: OVCAR-8 ovarian
[46] = system: SNB-75 CNS
[47] = system: IGROV1 ovarian
[48] = system: CAKI-1 renal
[49] = system: SK-MEL-28 melanoma
[50] = system: UACC-257 melanoma
[51] = system: U251 CNS
[52] = system: MOLT-4 leukemia
[53] = system: NCI/ADR-RES ovarian
[54] = system: SN12C renal
[55] = system: MCF7 breast
[56] = system: SK-MEL-5 melanoma
[57] = system: NCI-H522 lung
[58] = system: MALME-3M melanoma

Q: How did the TGI [1] turn out when Cc1[nH]c2ncn(/N=C/c3ccccc3)c(=N)c2c1Cc1ccccc1 was run?
A: > 100 µM

Q: What about the TGI [2] of the same compound?
A: > 100 µM

Q: And the TGI [3]?
A: > 100 µM

Q: And the TGI [4]?
A: > 100 µM

Q: What about the TGI [5] of the same compound?
A: > 100 µM

Q: And the TGI [6]?
A: > 100 µM

Q: And the TGI [7]?
A: > 100 µM

Q: What about the TGI [8] of the same compound?
A: > 100 µM

Q: What about the TGI [9] of the same compound?
A: > 100 µM

Q: What about the TGI [10] of the same compound?
A: > 100 µM

Q: And the TGI [11]?
A: > 100 µM

Q: What about the TGI [12] of the same compound?
A: > 100 µM

Q: What about the TGI [13] of the same compound?
A: > 100 µM

Q: And the TGI [14]?
A: > 100 µM

Q: What about the TGI [15] of the same compound?
A: > 100 µM

Q: And the TGI [16]?
A: > 100 µM

Q: What about the TGI [17] of the same compound?
A: > 100 µM

Q: And the TGI [18]?
A: > 100 µM

Q: What about the TGI [19] of the same compound?
A: > 100 µM

Q: And the TGI [20]?
A: > 100 µM

Q: And the TGI [21]?
A: > 100 µM

Q: What about the TGI [22] of the same compound?
A: > 100 µM

Q: What about the TGI [23] of the same compound?
A: > 100 µM

Q: And the TGI [24]?
A: > 100 µM

Q: What about the TGI [25] of the same compound?
A: > 100 µM

Q: What about the TGI [26] of the same compound?
A: > 100 µM

Q: What about the TGI [27] of the same compound?
A: > 100 µM

Q: And the TGI [28]?
A: > 100 µM

Q: What about the TGI [29] of the same compound?
A: > 100 µM

Q: And the TGI [30]?
A: > 100 µM

Q: And the TGI [31]?
A: > 100 µM

Q: And the TGI [32]?
A: > 100 µM

Q: And the TGI [33]?
A: > 100 µM

Q: And the TGI [34]?
A: > 100 µM

Q: And the TGI [35]?
A: > 100 µM

Q: And the TGI [36]?
A: > 100 µM

Q: What about the TGI [37] of the same compound?
A: > 100 µM

Q: What about the TGI [38] of the same compound?
A: > 100 µM

Q: And the TGI [39]?
A: > 100 µM

Q: And the TGI [40]?
A: > 100 µM

Q: What about the TGI [41] of the same compound?
A: > 100 µM

Q: What about the TGI [42] of the same compound?
A: > 100 µM

Q: What about the TGI [43] of the same compound?
A: > 100 µM

Q: And the TGI [44]?
A: > 100 µM

Q: And the TGI [45]?
A: > 100 µM

Q: And the TGI [46]?
A: > 100 µM

Q: What about the TGI [47] of the same compound?
A: > 100 µM

Q: And the TGI [48]?
A: > 100 µM

Q: And the TGI [49]?
A: > 100 µM

Q: And the TGI [50]?
A: > 100 µM

Q: And the TGI [51]?
A: > 100 µM

Q: And the TGI [52]?
A: > 100 µM

Q: And the TGI [53]?
A: > 100 µM

Q: What about the TGI [54] of the same compound?
A: > 100 µM

Q: What about the TGI [55] of the same compound?
A: > 100 µM

Q: CC(C)=CCC/C(C)=C/Cc1cc(/C=C/c2cc(O)c(CC=C(C)C)c(O)c2)cc(O)c1O was tested. Which TGI [1] did it give?
A: 7.1 µM

Q: And the TGI [2]?
A: 11.9 µM

Q: And the TGI [3]?
A: 2.89 µM

Q: And the TGI [4]?
A: 3.68 µM

Q: And the TGI [5]?
A: 4.54 µM

Q: What about the TGI [6] of the same compound?
A: 13.3 µM

Q: And the TGI [7]?
A: 9.4 µM

Q: What about the TGI [8] of the same compound?
A: 8.65 µM

Q: And the TGI [9]?
A: 11.9 µM

Q: And the TGI [56]?
A: 5.88 µM

Q: What about the TGI [10] of the same compound?
A: 13.6 µM

Q: What about the TGI [11] of the same compound?
A: 14.2 µM

Q: What about the TGI [12] of the same compound?
A: 7 µM

Q: What about the TGI [13] of the same compound?
A: 10.4 µM

Q: And the TGI [14]?
A: 11.9 µM

Q: What about the TGI [15] of the same compound?
A: 26.6 µM

Q: What about the TGI [16] of the same compound?
A: 33.4 µM

Q: What about the TGI [17] of the same compound?
A: 16 µM

Q: And the TGI [18]?
A: 14.7 µM

Q: What about the TGI [19] of the same compound?
A: 12.3 µM

Q: What about the TGI [20] of the same compound?
A: 17.5 µM

Q: And the TGI [21]?
A: 5.83 µM

Q: And the TGI [22]?
A: 11.2 µM

Q: And the TGI [23]?
A: 12.1 µM

Q: And the TGI [57]?
A: 0.38 µM

Q: And the TGI [24]?
A: 16.6 µM

Q: And the TGI [25]?
A: 21.5 µM

Q: What about the TGI [26] of the same compound?
A: 9.2 µM

Q: And the TGI [27]?
A: 26.8 µM

Q: What about the TGI [28] of the same compound?
A: 7.46 µM

Q: What about the TGI [29] of the same compound?
A: 24.4 µM

Q: What about the TGI [30] of the same compound?
A: 5.86 µM

Q: What about the TGI [32] of the same compound?
A: 2.79 µM

Q: And the TGI [33]?
A: 18.2 µM

Q: And the TGI [34]?
A: 14.5 µM

Q: And the TGI [35]?
A: 23.8 µM

Q: What about the TGI [36] of the same compound?
A: 9.88 µM

Q: What about the TGI [37] of the same compound?
A: 3.19 µM

Q: And the TGI [38]?
A: 15.4 µM

Q: What about the TGI [39] of the same compound?
A: 12.2 µM

Q: What about the TGI [40] of the same compound?
A: 17 µM

Q: What about the TGI [41] of the same compound?
A: 20.6 µM

Q: And the TGI [42]?
A: 23 µM

Q: And the TGI [43]?
A: 13.8 µM

Q: What about the TGI [58] of the same compound?
A: 18.6 µM

Q: What about the TGI [44] of the same compound?
A: 15.6 µM

Q: And the TGI [45]?
A: 14.9 µM

Q: What about the TGI [46] of the same compound?
A: 7.57 µM

Q: What about the TGI [47] of the same compound?
A: 6.81 µM

Q: What about the TGI [48] of the same compound?
A: 16.9 µM

Q: What about the TGI [49] of the same compound?
A: 17.5 µM

Q: And the TGI [50]?
A: 5.2 µM

Q: And the TGI [51]?
A: 5 µM

Q: What about the TGI [52] of the same compound?
A: 11.8 µM

Q: And the TGI [53]?
A: 13.3 µM

Q: And the TGI [54]?
A: 3.95 µM

Q: What about the TGI [55] of the same compound?
A: 13.4 µM
